Values after ≈ are worked out from the molar mass of the structure shown.
Test system: E. coli strains
Test: CLSI overnight reference method, broth microdilution MIC
Assay type: cell-based
Conditions: for MIC (CLSI Ref): unit assumed
[1] = E. coli strain Clinical Sample 1
[2] = E. coli strain Clinical Sample 2
[3] = E. coli strain Clinical Sample 4
[4] = E. coli strain Clinical Sample 5
[5] = E. coli strain Clinical Sample 6
[6] = E. coli strain Clinical Sample 7
[7] = E. coli strain Clinical Sample 8
[8] = E. coli strain Clinical Sample 9
[9] = E. coli strain Clinical Sample 10
[10] = E. coli strain Clinical Sample 11
[11] = E. coli strain Clinical Sample 12
[12] = E. coli strain Clinical Sample 13

C[C@@H](O)[C@H]1C(=O)N2C(C(=O)O)=C(S[C@@H]3CN[C@H](C(=O)Nc4cccc(C(=O)O)c4)C3)[C@H](C)[C@H]12 [ERT, Ertapenem] showed an MIC (CLSI Ref) (E. coli strain BEI 4.097) of 0.008 µg/mL (≈ 0.0168 µM), an MIC (CLSI Ref) (E. coli strain CDC Carba36) of 0.12 µg/mL (≈ 0.252 µM) and an MIC (CLSI Ref) [1] of 0.008 µg/mL (≈ 0.0168 µM). It also gave an MIC (CLSI Ref) [2] of 0.015 µg/mL (≈ 0.0315 µM), an MIC (CLSI Ref) [3] of 0.008 µg/mL (≈ 0.0168 µM) and an MIC (CLSI Ref) [4] of 0.008 µg/mL (≈ 0.0168 µM). For the same compound, the MIC (CLSI Ref) [5] was 0.008 µg/mL (≈ 0.0168 µM), the MIC (CLSI Ref) [6] was 0.008 µg/mL (≈ 0.0168 µM) and the MIC (CLSI Ref) [7] was 0.25 µg/mL (≈ 0.526 µM). It also gave an MIC (CLSI Ref) [8] of 0.12 µg/mL (≈ 0.252 µM), an MIC (CLSI Ref) [9] of 0.008 µg/mL (≈ 0.0168 µM) and an MIC (CLSI Ref) [10] of 0.008 µg/mL (≈ 0.0168 µM). It also gave an MIC (CLSI Ref) [11] of 0.008 µg/mL (≈ 0.0168 µM) and an MIC (CLSI Ref) [12] of 0.016 µg/mL (≈ 0.0336 µM).

With Penicillin the MIC (CLSI Ref) (E. coli strain BEI 4.097) was 16 µg/mL, the MIC (CLSI Ref) (E. coli strain CDC Carba36) was > 16 µg/mL and the MIC (CLSI Ref) [1] was > 16 µg/mL. For the same compound, the MIC (CLSI Ref) [2] was > 16 µg/mL, the MIC (CLSI Ref) [3] was > 16 µg/mL and the MIC (CLSI Ref) [4] was > 16 µg/mL. For the same compound, the MIC (CLSI Ref) [5] was 16 µg/mL, the MIC (CLSI Ref) [6] was > 16 µg/mL and the MIC (CLSI Ref) [7] was > 16 µg/mL. The MIC (CLSI Ref) [8] was > 16 µg/mL, the MIC (CLSI Ref) [9] was > 16 µg/mL and the MIC (CLSI Ref) [10] was > 16 µg/mL. The MIC (CLSI Ref) [11] was > 16 µg/mL and the MIC (CLSI Ref) [12] was 16 µg/mL.

CO/N=C(\C(=O)N[C@@H]1C(=O)N2C(C(=O)O)=C(CSc3nc(=O)c(=O)[nH]n3C)CS[C@H]12)c1csc(N)n1 [CRO, Ceftriaxone] was tested, and the MIC (CLSI Ref) (E. coli strain BEI 4.097) was < 0.12 µg/mL, the MIC (CLSI Ref) (E. coli strain CDC Carba36) was 1 µg/mL (≈ 1.8 µM) and the MIC (CLSI Ref) [1] was < 0.12 µg/mL. For the same compound, the “Interpretation letter” value [2] was “I”, the MIC (CLSI Ref) [2] was 2 µg/mL (≈ 3.61 µM) and the MIC (CLSI Ref) [3] was < 0.12 µg/mL. For the same compound, the MIC (CLSI Ref) [4] was < 0.12 µg/mL, the MIC (CLSI Ref) [5] was < 0.12 µg/mL and the MIC (CLSI Ref) [6] was < 0.12 µg/mL. For the same compound, the MIC (CLSI Ref) [7] was 64 µg/mL (≈ 115 µM), the MIC (CLSI Ref) [8] was > 64 µg/mL and the MIC (CLSI Ref) [9] was < 0.12 µg/mL. For the same compound, the MIC (CLSI Ref) [10] was < 0.12 µg/mL, the MIC (CLSI Ref) [11] was < 0.12 µg/mL and the MIC (CLSI Ref) [12] was < 0.12 µg/mL.

With Imipenem/Cilastatin [IPM] the MIC (CLSI Ref) (E. coli strain BEI 4.097) was < 0.12 µg/mL, the MIC (CLSI Ref) (E. coli strain CDC Carba36) was < 0.12 µg/mL and the MIC (CLSI Ref) [1] was < 0.12 µg/mL. For the same compound, the MIC (CLSI Ref) [2] was < 0.12 µg/mL, the MIC (CLSI Ref) [3] was 0.25 µg/mL and the MIC (CLSI Ref) [4] was < 0.12 µg/mL. The MIC (CLSI Ref) [5] was < 0.12 µg/mL, the MIC (CLSI Ref) [6] was < 0.12 µg/mL and the MIC (CLSI Ref) [7] was 0.5 µg/mL. For the same compound, the MIC (CLSI Ref) [8] was < 0.12 µg/mL, the MIC (CLSI Ref) [9] was < 0.12 µg/mL and the MIC (CLSI Ref) [10] was 0.25 µg/mL. The MIC (CLSI Ref) [11] was < 0.12 µg/mL and the MIC (CLSI Ref) [12] was < 0.12 µg/mL.

In the case of C[C@@H](O)[C@H]1C(=O)N2C(C(=O)O)=C(S[C@@H]3CN[C@H](C(=O)N(C)C)C3)[C@H](C)[C@H]12 [MEM, Meropenem], the MIC (CLSI Ref) (E. coli strain BEI 4.097) was < 0.06 µg/mL, the MIC (CLSI Ref) (E. coli strain CDC Carba36) was < 0.06 µg/mL and the MIC (CLSI Ref) [1] was < 0.06 µg/mL. For the same compound, the MIC (CLSI Ref) [2] was < 0.06 µg/mL, the MIC (CLSI Ref) [3] was < 0.06 µg/mL and the MIC (CLSI Ref) [4] was < 0.06 µg/mL. The MIC (CLSI Ref) [5] was < 0.06 µg/mL, the MIC (CLSI Ref) [6] was < 0.06 µg/mL and the MIC (CLSI Ref) [7] was < 0.06 µg/mL. The MIC (CLSI Ref) [8] was < 0.06 µg/mL, the MIC (CLSI Ref) [9] was < 0.06 µg/mL and the MIC (CLSI Ref) [10] was < 0.06 µg/mL. For the same compound, the MIC (CLSI Ref) [11] was < 0.06 µg/mL and the MIC (CLSI Ref) [12] was < 0.06 µg/mL.

CN(C)[C@@H]1C(=O)C(C(N)=O)=C(O)[C@@]2(O)C(=O)C3=C(O)c4c(O)cccc4[C@@](C)(O)[C@H]3C[C@@H]12 [TET, Tetracycline] gave an MIC (CLSI Ref) (E. coli strain BEI 4.097) of 32 µg/mL (≈ 72 µM), an MIC (CLSI Ref) (E. coli strain CDC Carba36) of 8 µg/mL (≈ 18 µM) and an MIC (CLSI Ref) [1] of 4 µg/mL (≈ 9 µM). For the same compound, the “Interpretation letter” value [2] was “R”, the MIC (CLSI Ref) [2] was > 32 µg/mL and the MIC (CLSI Ref) [3] was 4 µg/mL (≈ 9 µM). For the same compound, the MIC (CLSI Ref) [4] was > 32 µg/mL, the MIC (CLSI Ref) [5] was 2 µg/mL (≈ 4.5 µM) and the MIC (CLSI Ref) [6] was 4 µg/mL (≈ 9 µM). The MIC (CLSI Ref) [7] was 8 µg/mL (≈ 18 µM), the MIC (CLSI Ref) [8] was 4 µg/mL (≈ 9 µM) and the MIC (CLSI Ref) [9] was 4 µg/mL (≈ 9 µM). The MIC (CLSI Ref) [10] was 4 µg/mL (≈ 9 µM), the MIC (CLSI Ref) [11] was 4 µg/mL (≈ 9 µM) and the MIC (CLSI Ref) [12] was 4 µg/mL (≈ 9 µM).

For C[C@H]1[C@H](NC(=O)/C(=N\OC(C)(C)C(=O)O)c2csc(N)n2)C(=O)N1S(=O)(=O)O [ATM, Aztreonam], the MIC (CLSI Ref) (E. coli strain BEI 4.097) was < 0.25 µg/mL, the MIC (CLSI Ref) (E. coli strain CDC Carba36) was 8 µg/mL (≈ 18.4 µM) and the MIC (CLSI Ref) [1] was < 0.25 µg/mL. The MIC (CLSI Ref) [2] was 0.5 µg/mL (≈ 1.15 µM), the MIC (CLSI Ref) [3] was < 0.25 µg/mL and the MIC (CLSI Ref) [4] was < 0.25 µg/mL. The MIC (CLSI Ref) [5] was < 0.25 µg/mL, the MIC (CLSI Ref) [6] was < 0.25 µg/mL and the MIC (CLSI Ref) [7] was 64 µg/mL (≈ 147 µM). The MIC (CLSI Ref) [8] was 32 µg/mL (≈ 73.5 µM), the MIC (CLSI Ref) [9] was < 0.25 µg/mL and the MIC (CLSI Ref) [10] was < 0.25 µg/mL. The MIC (CLSI Ref) [11] was < 0.25 µg/mL and the MIC (CLSI Ref) [12] was < 0.25 µg/mL.
